Assay results: ChEMBL document CHEMBL5727538, “Pyridazinones as PARP7 inhibitors” (2020)

Molecular target: T1, Protein mono-ADP-ribosyltransferase TIPARP (Homo sapiens, UniProt Q7Z3E1)
T1 sequence (Q7Z3E1 whole entry): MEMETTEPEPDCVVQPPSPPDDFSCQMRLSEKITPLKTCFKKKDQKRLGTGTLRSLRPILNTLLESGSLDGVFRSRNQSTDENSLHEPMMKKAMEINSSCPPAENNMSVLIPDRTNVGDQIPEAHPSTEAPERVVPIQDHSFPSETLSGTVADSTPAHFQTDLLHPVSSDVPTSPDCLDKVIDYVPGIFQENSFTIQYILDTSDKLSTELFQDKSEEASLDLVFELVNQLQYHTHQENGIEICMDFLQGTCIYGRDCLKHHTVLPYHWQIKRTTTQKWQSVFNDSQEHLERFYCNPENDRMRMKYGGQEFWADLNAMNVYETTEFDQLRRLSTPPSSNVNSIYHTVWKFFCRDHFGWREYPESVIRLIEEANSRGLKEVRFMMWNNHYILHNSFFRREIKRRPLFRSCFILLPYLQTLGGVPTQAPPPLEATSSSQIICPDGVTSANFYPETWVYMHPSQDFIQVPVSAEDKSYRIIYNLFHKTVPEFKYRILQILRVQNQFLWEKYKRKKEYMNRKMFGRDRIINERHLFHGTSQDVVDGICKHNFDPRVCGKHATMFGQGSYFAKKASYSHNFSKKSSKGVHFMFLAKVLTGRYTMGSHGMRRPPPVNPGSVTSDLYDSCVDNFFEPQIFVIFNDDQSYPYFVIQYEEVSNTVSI
Experiment: Enzymatic Assay for Inhibition of PARP7: Displacement of Probe A, a biotinylated probe binding to the TIPARP active site, was measured using a time-resolved fluorescence energy transfer (TR-FRET) assay. 20 nL of a dose response curve of each test compound was spotted in black 384-well polystyrene proxiplates (Perkin Elmer) using a Mosquito (TTP Labtech). Reactions were performed in a 8 μL volume by adding 6 μL of TIPARP and Probe A in assay buffer (20 mM HEPES pH=8, 100 mM NaCl, 0.1% bovine serum albumin, 2 mM DTT and 0.002% Tween20), incubating with test compound at 25° C. for 30 min, then adding 2 μL of ULight-anti 6×His and LANCE Eu-W1024 labeled streptavidin (Perkin Elmer). The final concentrations of TIPARP and Probe A were 6 nM and 2 nM, respectively. The final concentration of ULight-anti 6xHis and LANCE Eu-W1024 labeled streptavidin were 4 nM and 0.25 nM, respectively. Reactions were incubated at 25° C. for an additional 30 min, then read on an Envision platereader equipped with a LANCE/DELFIA top mirror (Perkin Elmer) using excitation of 320 nm and emission of 615 nm and […] with a 90 μs delay. The ratio of the 665/615 nm emission were calculated for each well to determine the amount of complex of TIPARP and Probe A in each well. […] The Hill Coefficient is normally allowed to float but may also be fixed at 1 in a 3-parameter fit. Y is the % inhibition and x is the compound concentration.

Row | SMILES | IC50 [nM]
1 | O=C(COC[C@@H]1CCCN1c1cn[nH]c(=O)c1C(F)(F)F)N[C@H]1CC[C@@H](Nc2ccccn2)CC1 | 100 to 1000
2 | N#Cc1ccc(N2CCN(C(=O)CCOCCOC3CN(c4cn[nH]c(=O)c4C(F)(F)F)C3)CC2)nc1 | > 1000
3 | O=c1[nH]ncc(N2Cc3cccc(O)c3C2)c1C(F)(F)F | < 100
4 | O=C(CCOC[C@@H]1CCCN1c1cn[nH]c(=O)c1C(F)(F)F)N[C@H]1CC[C@H](Nc2ccccn2)CC1 | 100 to 1000

Now from value to molecule:

Row | IC50 [nM] | SMILES
5 | < 100 | N#Cc1ccc(N2CCN(C(=O)CC3COCCN3c3cn[nH]c(=O)c3C(F)(F)F)CC2)nc1 (stereo not drawn)
6 | < 100 | N#Cc1ccc(N2CCN(C(=O)[C@H]3C[C@H](OC[C@@H]4CCCN4c4cn[nH]c(=O)c4C(F)(F)F)C3)CC2)nc1
7 | < 100 | C[C@@H](COCCC(=O)N1CCC(Nc2ncc(C(F)(F)F)s2)C1)Nc1cn[nH]c(=O)c1C(F)(F)F (stereo partly drawn)
8 | < 100 | O=C(CCOC[C@H](Nc1cn[nH]c(=O)c1C(F)(F)F)C1CCNCC1)N1CCN(c2ncc(C(F)(F)F)cn2)CC1
